Data published in patent publication US11090319B2, “Therapeutic uses of pharmaceutical compositions comprising cyclic boronic acid ester derivatives” (Melinta Subsidiary Corp., priority 2010, dated 2021).

Columns and labels:
Experiment in all cases: Ceftazidime MIC with fixed concentration of BLI
Type in all cases: cell-based
[1] = system: AB1054 Acinetobacter baumannii OXA-23; details: derivative at 10 μg/mL; AB1054 OXA-23
Protocol: (§1) Next, ceftazidime potentiation activity of several cyclic boronic acid ester derivatives was tested using a larger panel of strains expressing β-lactamase hydrolyzing enzymes. Ceftazidime MICs were determined alone and in the presence of fixed concentrations of various cyclic boronic acid ester derivatives.

[2] = system: AB1057 Acinetobacter baumannii OXA-58; details: derivative at 10 μg/mL; AB1057 OXA-58
Protocol: as §1

[3] = system: EC1004 Escherichia coli CMY-2; details: derivative at 10 μg/mL; EC1004 CMY-2
Protocol: as §1

[4] = system: EC1006 Escherichia coli FOX-5; details: derivative at 10 μg/mL; EC1006 FOX-5
Protocol: as §1

[5] = system: EC1007 Escherichia coli KPC-3; details: derivative at 10 μg/mL; EC1007 KPC-3
Protocol: as §1

[6] = system: EC1008 Escherichia coli CTX-M3; details: derivative at 10 μg/mL
Protocol: as §1

[7] = system: EC1009 Escherichia coli TEM-10; details: derivative at 10 μg/mL; EC1009 TEM-10
Protocol: as §1

[8] = system: EC1010 Escherichia coli CMY-6; details: derivative at 10 μg/mL; EC1010 CMY-6
Protocol: as §1

[9] = system: EC1011 Escherichia coli TEM-26; details: derivative at 10 μg/mL; EC1011 TEM-26
Protocol: as §1

[10] = system: EC1012 Escherichia coli TEM-12; details: derivative at 10 μg/mL; EC1012 TEM-12
Protocol: as §1

[11] = system: EC1014 Escherichia coli DHA-1; details: derivative at 10 μg/mL; EC1014 DHA-1
Protocol: as §1

[12] = system: ECL1002 Enterobacter cloacae Hyper AmpC expression; details: derivative at 10 μg/mL
Protocol: as §1

[13] = system: KP1004 Klebsiella pneumoniae KPC-2; details: derivative at 10 μg/mL; KP1004 KPC-2
Protocol: as §1

[14] = system: KP1005 Klebsiella pneumoniae CTX-M-14; details: derivative at 10 μg/mL; KP1005 CTX-M-14
Protocol: as §1

[15] = system: KP1007 Klebsiella pneumoniae OXA-10; details: derivative at 10 μg/mL; KP1007 OXA-10
Protocol: as §1

[16] = system: KP1008 Klebsiella pneumoniae KPC-2; details: derivative at 10 μg/mL; KP1008 KPC-2
Protocol: as §1

[17] = system: KP1009 Klebsiella pneumoniae CTX-M-15; details: derivative at 10 μg/mL; KP1009 CTX-M-15
Protocol: as §1

[18] = system: KP1010 Klebsiella pneumoniae SHV-12; details: derivative at 10 μg/mL; KP1010 SHV-12
Protocol: as §1

[19] = system: KX1000 Klebsiella oxytoca OXA-2; details: derivative at 10 μg/mL; KX1000 OXA-2
Protocol: as §1

[20] = system: PAM2005 Pseudomonas aeruginosa ampC; details: derivative at 10 μg/mL
Protocol: as §1

[21] = system: PAM2035 Pseudomonas aeruginosa ampC mexA:tet; details: derivative at 10 μg/mL
Protocol: as §1

[22] = system: ec300 Escherichia coli TEM-3; details: derivative at 10 μg/mL; ec300 TEM-3
Protocol: as §1

[23] = system: ec301 Escherichia coli TEM-6; details: derivative at 10 μg/mL; ec301 TEM-6
Protocol: as §1

[24] = system: ec302 Escherichia coli TEM-10; details: derivative at 10 μg/mL; ec302 TEM-10
Protocol: as §1

[25] = system: ec303 Escherichia coli TEM-12; details: derivative at 10 μg/mL; ec303 TEM-12
Protocol: as §1

[26] = system: ec306 Escherichia coli SHV-2; details: derivative at 10 μg/mL; ec306 SHV-2
Protocol: as §1

[27] = system: ec307 Escherichia coli SHV-4; details: derivative at 10 μg/mL; ec307 SHV-4
Protocol: as §1

[28] = system: ec308 Escherichia coli SHV-5; details: derivative at 10 μg/mL; ec308 SHV-5
Protocol: as §1

[29] = system: ec309 Escherichia coli MIR-1; details: derivative at 10 μg/mL; ec309 MIR-1
Protocol: as §1

[30] = system: ec310 Escherichia coli ACT-1; details: derivative at 10 μg/mL; ec310 ACT-1
Protocol: as §1

[31] = system: pa1063 Pseudomonas aeruginosa GES-1; details: derivative at 10 μg/mL; pa1063 GES-1
Protocol: as §1

SMILES | Ceftazidime MIC with cyclic boronic acid ester derivative [1] | Ceftazidime MIC with cyclic boronic acid ester derivative [2] | Ceftazidime MIC with cyclic boronic acid ester derivative [3] | Ceftazidime MIC with cyclic boronic acid ester derivative [4] | Ceftazidime MIC with cyclic boronic acid ester derivative [5] | Ceftazidime MIC with cyclic boronic acid ester derivative [6] | Ceftazidime MIC with cyclic boronic acid ester derivative [7] | Ceftazidime MIC with cyclic boronic acid ester derivative [8] | Ceftazidime MIC with cyclic boronic acid ester derivative [9] | Ceftazidime MIC with cyclic boronic acid ester derivative [10] | Ceftazidime MIC with cyclic boronic acid ester derivative [11] | Ceftazidime MIC with cyclic boronic acid ester derivative [12] | Ceftazidime MIC with cyclic boronic acid ester derivative [13] | Ceftazidime MIC with cyclic boronic acid ester derivative [14] | Ceftazidime MIC with cyclic boronic acid ester derivative [15] | Ceftazidime MIC with cyclic boronic acid ester derivative [16] | Ceftazidime MIC with cyclic boronic acid ester derivative [17] | Ceftazidime MIC with cyclic boronic acid ester derivative [18] | Ceftazidime MIC with cyclic boronic acid ester derivative [19] | Ceftazidime MIC with cyclic boronic acid ester derivative [20] | other results
O=C(O)C[C@@H]1CC[C@H](NC(=O)Cc2ccccc2)B(O)O1 [Compound 6, 2-((3R,6S)-2-hydroxy-3-(2-phenylacetamido)-1,2-oxaborinan-6-yl)acetic acid] | Z (MIC of greater than 8 μg/mL) | Z (MIC of greater than 8 μg/mL) | Y (MIC of greater than 1 μg/mL to 8 μg/mL) | Y (MIC of greater than 1 μg/mL to 8 μg/mL) | X (MIC of 1 μg/mL or less) | Y (MIC of greater than 1 μg/mL to 8 μg/mL) | Z (MIC of greater than 8 μg/mL) | Y (MIC of greater than 1 μg/mL to 8 μg/mL) | Z (MIC of greater than 8 μg/mL) | Y (MIC of greater than 1 μg/mL to 8 μg/mL) | X (MIC of 1 μg/mL or less) | Y (MIC of greater than 1 μg/mL to 8 μg/mL) | Y (MIC of greater than 1 μg/mL to 8 μg/mL) | Z (MIC of greater than 8 μg/mL) | Y (MIC of greater than 1 μg/mL to 8 μg/mL) | X (MIC of 1 μg/mL or less) | Z (MIC of greater than 8 μg/mL) | Y (MIC of greater than 1 μg/mL to 8 μg/mL) | Y (MIC of greater than 1 μg/mL to 8 μg/mL) | Z (MIC of greater than 8 μg/mL) | Ceftazidime MIC with cyclic boronic acid ester derivative [21]: Y (MIC of greater than 1 μg/mL to 8 μg/mL); Ceftazidime MIC with cyclic boronic acid ester derivative [22]: Z (MIC of greater than 8 μg/mL); Ceftazidime MIC with cyclic boronic acid ester derivative [23]: Z (MIC of greater than 8 μg/mL); Ceftazidime MIC with cyclic boronic acid ester derivative [24]: Z (MIC of greater than 8 μg/mL); Ceftazidime MIC with cyclic boronic acid ester derivative [25]: Y (MIC of greater than 1 μg/mL to 8 μg/mL); Ceftazidime MIC with cyclic boronic acid ester derivative [26]: Z (MIC of greater than 8 μg/mL); Ceftazidime MIC with cyclic boronic acid ester derivative [27]: Z (MIC of greater than 8 μg/mL); Ceftazidime MIC with cyclic boronic acid ester derivative [28]: Z (MIC of greater than 8 μg/mL); Ceftazidime MIC with cyclic boronic acid ester derivative [29]: X (MIC of 1 μg/mL or less); Ceftazidime MIC with cyclic boronic acid ester derivative [30]: X (MIC of 1 μg/mL or less); Ceftazidime MIC with cyclic boronic acid ester derivative [31]: Z (MIC of greater than 8 μg/mL)
Cl.N[C@H]1CCC(CC(=O)O)OB1O (stereo partly drawn) [Compound 7, 2-((3R)-3-amino-2-hydroxy-1,2-oxaborinan-6-yl)acetic acid hydrochloride] | Z (MIC of greater than 8 μg/mL) | Z (MIC of greater than 8 μg/mL) | Z (MIC of greater than 8 μg/mL) | Z (MIC of greater than 8 μg/mL) | Z (MIC of greater than 8 μg/mL) | Z (MIC of greater than 8 μg/mL) | Z (MIC of greater than 8 μg/mL) | Z (MIC of greater than 8 μg/mL) | Z (MIC of greater than 8 μg/mL) | Z (MIC of greater than 8 μg/mL) | Z (MIC of greater than 8 μg/mL) | Z (MIC of greater than 8 μg/mL) | Z (MIC of greater than 8 μg/mL) | Z (MIC of greater than 8 μg/mL) | Z (MIC of greater than 8 μg/mL) | Z (MIC of greater than 8 μg/mL) | Z (MIC of greater than 8 μg/mL) | Z (MIC of greater than 8 μg/mL) | Y (MIC of greater than 1 μg/mL to 8 μg/mL) | Z (MIC of greater than 8 μg/mL) | Ceftazidime MIC with cyclic boronic acid ester derivative [21]: Z (MIC of greater than 8 μg/mL); Ceftazidime MIC with cyclic boronic acid ester derivative [22]: Z (MIC of greater than 8 μg/mL); Ceftazidime MIC with cyclic boronic acid ester derivative [23]: Z (MIC of greater than 8 μg/mL); Ceftazidime MIC with cyclic boronic acid ester derivative [24]: Z (MIC of greater than 8 μg/mL); Ceftazidime MIC with cyclic boronic acid ester derivative [25]: Z (MIC of greater than 8 μg/mL); Ceftazidime MIC with cyclic boronic acid ester derivative [26]: Z (MIC of greater than 8 μg/mL); Ceftazidime MIC with cyclic boronic acid ester derivative [27]: Z (MIC of greater than 8 μg/mL); Ceftazidime MIC with cyclic boronic acid ester derivative [28]: Z (MIC of greater than 8 μg/mL); Ceftazidime MIC with cyclic boronic acid ester derivative [29]: Z (MIC of greater than 8 μg/mL); Ceftazidime MIC with cyclic boronic acid ester derivative [30]: Z (MIC of greater than 8 μg/mL); Ceftazidime MIC with cyclic boronic acid ester derivative [31]: Z (MIC of greater than 8 μg/mL)
